Laboratory results taken from patent US5712417A, “Inhibitors of retroviral proteases” (Abbott Laboratories, priority 1989, dated 1998).
Where a SMILES comes first, the peptide text is derived from it. [ ]: non-standard residue; d: D form. The star is where a group is joined. Sta = CC(C)C[C@H](N)[C@@H](O)CC(=O)O; Isovaleryl = CC(C)CC(=O)*

What was measured:
HIV protease [1] = target: T1, HIV protease (Human immunodeficiency virus type 1 group M subtype B, UniProt P04585); assay: Inhibition of HIV protease (cleavage of H-Ser-Phe-Asn-Phe-Opr-Gln-Ile-OH, HPLC); format: biochemical; settings: inhibitor concentration at which the cleavage rate is halved; pH 6, 2 hours; read-out: IC50
T1 construct: HIV protease consists of 99 amino acids and is evidently split off by itself from the pol polyprotein
In short: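 Substrate H-Ser-Phe-Asn-Phe-Opr-Gln-Ile-OH in MGTE buffer (MES, glycerol, Triton X-100, PMSF, pH 6) preincubated with inhibitor at 37 °C for 5-10 min, then reacted with protease at 35 °C for 2 h. RP18 HPLC at 215 nm; tetrapeptide fraction gives cleavage rate, IC50 where rate is halved.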

HIV protease [2] = settings: literature (Katoh et al., Nature 1987); cited from earlier work
core protein p24 = settings: high doses; cited from earlier work
[3] = in many cases require discontinuation of the therapy; cited from earlier work
HIV = settings: first strains of HIV; cited from earlier work

CC[C@H](C)[C@H](NC(=O)[C@H](Cc1cccc2ccccc12)CS(=O)(=O)C(C)(C)C)C(=O)N[C@@H](Cc1ccccc1)[C@@H](O)[C@H](O)[C@H](Cc1ccccc1)NC(=O)[C@@H](NC(=O)[C@H](Cc1cccc2ccccc12)CS(=O)(=O)C(C)(C)C)[C@@H](C)CC [Example 156, N,N'-bis-(<2S-(1,1-Dimethylethylsulfonylmethyl)-3-(1-naphthyl)-propionyl>-L-isoleucyl)-2S,5S-diamino-1,6-diphenylhexane-3R,4R-diol]
IC50 (HIV protease [1]): 0.03 µM

CC(C)CC(=O)N[C@H](C(=O)N[C@H](C(=O)N[C@@H](CC(C)C)[C@@H](O)CC(=O)N[C@@H](C)C(=O)N[C@@H](CC(C)C)[C@@H](O)CC(=O)O)C(C)C)C(C)C [Pepstatin A] (Isovaleryl-VV[Sta]A[Sta]-OH)
reducing the formation of the core protein p24 (core protein p24): capable of reducing the formation of the core protein p24

Cc1cn([C@H]2C[C@H](N=[N+]=[N-])[C@@H](CO)O2)c(=O)[nH]c1=O [Zidovudine (AZT)]
toxic side effects [3]: serious toxic side effects
sensitivity of HIV strains toward AZT (HIV): significantly lower sensitivity
